pIC50: −log10 of the molar value.
Experiments:
[1] = target: hERG (Homo sapiens, UniProt Q12809); assay: Patch clamp assay (hERG tail currents, whole-cell)
[2] = target: T1, human Menin and N-terminal portion of human MLL (amino acids 4-43) (Homo sapiens, UniProt O00255); assay: Menin-MLL competition assay (HTRF); format: binding; conditions: 1 hr incubation
T1 construct: H-FL-Menin diluted to 4 nM in assay buffer
T1 sequence (O00255 1-610): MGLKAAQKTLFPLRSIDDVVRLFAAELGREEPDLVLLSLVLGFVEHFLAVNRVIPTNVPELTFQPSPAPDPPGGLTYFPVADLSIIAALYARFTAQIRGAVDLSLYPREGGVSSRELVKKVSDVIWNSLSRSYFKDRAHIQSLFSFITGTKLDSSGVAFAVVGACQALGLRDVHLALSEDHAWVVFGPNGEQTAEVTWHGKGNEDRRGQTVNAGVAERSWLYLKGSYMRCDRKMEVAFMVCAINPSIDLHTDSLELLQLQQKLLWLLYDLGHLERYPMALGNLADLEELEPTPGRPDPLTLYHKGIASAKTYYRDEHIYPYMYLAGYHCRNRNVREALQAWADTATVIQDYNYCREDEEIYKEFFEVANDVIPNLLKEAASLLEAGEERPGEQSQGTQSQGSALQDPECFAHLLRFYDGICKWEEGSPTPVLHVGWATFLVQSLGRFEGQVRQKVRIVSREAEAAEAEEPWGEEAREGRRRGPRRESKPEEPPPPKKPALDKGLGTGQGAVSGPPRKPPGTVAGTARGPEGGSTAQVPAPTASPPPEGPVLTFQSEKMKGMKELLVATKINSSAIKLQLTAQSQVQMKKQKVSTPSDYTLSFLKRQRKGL
Description: Menin-MLL is a competition assay between human Menin and N-terminal portion of human MLL representing amino acids 4-43 of the protein. The interaction between Menin and MLL peptide was monitored by HTRF employing Terbium labeled anti-His6 antibody directed to the N-terminal His6-tag on recombinant Menin and FITC group covalently attached to the MLL peptide. The N-terminal fragment of MLL, retained in all MLL fusion proteins, is involved in the interactions with Menin, and this protein-protein interaction is critical for the MLL fusion proteins mediated leukemogenic transformations.
For IC50 determination test compounds were prepared as 10 mM DMSO stock solutions. Considering DMSO as the vehicle in the assay system. Lower sub-stocks of 50 μM were prepared from the 10 mM stock solution. To test the compounds in assay, 3.16-fold serial dilutions are made in 100% DMSO. Mid-stock of 50×compounds (50 μM) were serially diluted (3.16 fold) in 100% DMSO in Polypropylene plate. In assay plate 1 micro-litre of the previously prepared compound dilution was stamped. H-FL-Menin diluted to 4 nM in assay buffer (50 mM Tris-HCl, pH 7.4, 50 mM NaCl, freshly prepared 1 mM DTT, 0.01% BSA, 0.005% Triton X-100) was pre-incubated with 8 nM anti-His6-Tb for 30 min at room temperature. FITC-MLL-4-43 was diluted to 2 nM in assay buffer and 25 μL was dispensed into each well of the assay plate followed by addition of 25 μl of pre-incubated H-FL-Menin and anti-His6-Tb mixture. Final concentration H-FL-Menin diluted to 1 nM in assay plate with 2 nM anti-His6-Tb and 1 nM FITC-MLL-4-43. After 1 hr incubation at room temperature, the HTRF signal was measured on the Spark multi-label plate reader. Resulting data were captured as a ratio of RFU520/RFU485×1000. The max values were obtained from 0% inhibition in presence of 2% DMSO and the min. values were 100% inhibition in presence of 1 μM reference compound.

hERG, sequence (Q12809 whole entry, the tested form may be a part): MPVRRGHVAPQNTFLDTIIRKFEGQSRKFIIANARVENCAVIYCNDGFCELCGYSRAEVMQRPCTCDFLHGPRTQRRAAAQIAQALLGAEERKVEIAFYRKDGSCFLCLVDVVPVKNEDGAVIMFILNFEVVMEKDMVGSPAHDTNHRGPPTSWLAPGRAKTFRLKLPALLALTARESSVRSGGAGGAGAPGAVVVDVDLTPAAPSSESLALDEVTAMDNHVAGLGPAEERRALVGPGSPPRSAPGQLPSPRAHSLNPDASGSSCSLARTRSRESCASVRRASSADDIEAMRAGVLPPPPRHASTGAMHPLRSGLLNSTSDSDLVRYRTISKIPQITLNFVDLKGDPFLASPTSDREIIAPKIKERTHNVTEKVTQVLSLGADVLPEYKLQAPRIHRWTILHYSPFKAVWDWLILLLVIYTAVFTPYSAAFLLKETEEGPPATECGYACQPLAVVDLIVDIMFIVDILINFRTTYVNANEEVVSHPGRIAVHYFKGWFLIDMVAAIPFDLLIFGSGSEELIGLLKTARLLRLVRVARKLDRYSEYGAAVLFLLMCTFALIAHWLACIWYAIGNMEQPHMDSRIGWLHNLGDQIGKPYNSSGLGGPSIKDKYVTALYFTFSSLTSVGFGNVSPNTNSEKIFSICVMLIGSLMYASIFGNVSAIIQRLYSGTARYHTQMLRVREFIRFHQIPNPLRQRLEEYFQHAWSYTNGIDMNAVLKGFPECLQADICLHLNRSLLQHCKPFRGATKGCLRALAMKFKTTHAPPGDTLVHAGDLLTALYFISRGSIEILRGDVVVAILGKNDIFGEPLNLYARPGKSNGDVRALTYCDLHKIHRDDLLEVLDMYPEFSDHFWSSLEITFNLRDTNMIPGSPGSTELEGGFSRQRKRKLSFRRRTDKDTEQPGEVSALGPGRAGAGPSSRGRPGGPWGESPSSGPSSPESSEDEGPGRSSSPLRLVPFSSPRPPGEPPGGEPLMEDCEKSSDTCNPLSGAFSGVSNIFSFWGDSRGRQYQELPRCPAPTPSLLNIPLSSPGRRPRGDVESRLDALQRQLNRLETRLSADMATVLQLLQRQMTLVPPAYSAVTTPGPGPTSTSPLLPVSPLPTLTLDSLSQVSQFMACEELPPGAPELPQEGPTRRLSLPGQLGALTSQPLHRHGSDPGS

| Structure (SMILES) | hERG % Remaining ([1]; 1 μM compound) | hERG % Remaining ([1]; 3 μM compound) | hERG % Remaining ([1]; 10 μM compound) | hERG % Remaining ([1]; 30 μM compound) | hERG % Remaining ([1]; 100 μM compound) | pIC50 [2] |
| --- | --- | --- | --- | --- | --- | --- |
| CCS(=O)(=O)N[C@@H]1CC[C@@H](CN2CCC3(CC2)CN(c2ncncc2Oc2ccc(F)cc2C(=O)N(CC(F)F)C(C)C)C3)OC1 [Example 34, N-(2,2-Difluoroethyl)-2-((4-(7-(((2S,5R)-5-(ethylsulfonamido)tetrahydro-2H-pyran-2-yl)methyl)-2,7-diazaspiro[3.5]nonan-2-yl)pyrimidin-5-yl)oxy)-5-fluoro-N-isopropylbenzamide] | +++ (≥66%) | +++ (≥66%) | +++ (≥66%) | ++ (233% and ≤66%) | + (<33%) | > 7.00 |
| CCN(C(=O)c1cc(F)ccc1Oc1cncnc1N1CC2(CCN(C[C@@H]3CC[C@@H](NS(=O)(=O)c4ccccc4)CO3)CC2)C1)C(C)C [Example 45, N-Ethyl-5-fluoro-N-isopropyl-2-((4-(7-(((2S,5R)-5-(phenylsulfonamido)tetrahydro-2H-pyran-2-yl)methyl)-2,7-diazaspiro[3.5]nonan-2-yl)pyrimidin-5-yl)oxy)benzamide] | – | – | ++ (233% and ≤66%) | + (<33%) | – | > 7.00 |
| CC(C)N(C(=O)c1cc(F)ccc1Oc1cncnc1N1CC2(CCN(C[C@@H]3CC[C@@H](NS(=O)(=O)C4CC4)CO3)CC2)C1)C1CC1 [Example 21, 2-((4-(7-(((2S,5R)-5-(Cyclopropanesulfonamido)tetrahydro-2H-pyran-2-yl)methyl)-2,7-diazaspiro[3.5]nonan-2-yl)pyrimidin-5-yl)oxy)-N-cyclopropyl-5-fluoro-N-isopropylbenzamide] | – | – | ++ (233% and ≤66%) | + (<33%) | – | > 7.00 |
| CCS(=O)(=O)N[C@@H]1CC[C@@H](CN2CCC3(CC2)CN(c2ncncc2Oc2ccc(F)cc2C(=O)N(CCC#N)C(C)C)C3)OC1 [Example 43, N-(2-Cyanoethyl)-2-((4-(7-(((2S,5R)-5-(ethylsulfonamido)tetrahydro-2H-pyran-2-yl)methyl)-2,7-diazaspiro[3.5]nonan-2-yl)pyrimidin-5-yl)oxy)-5-fluoro-N-isopropylbenzamide] | – | – | +++ (≥66%) | ++ (233% and ≤66%) | – | > 7.00 |
| CC(C)N(C(=O)c1cc(F)ccc1Oc1cncnc1N1CC2(CCN(C[C@@H]3CC[C@@H](NS(C)(=O)=O)CO3)CC2)C1)C(C)C [Example 12, 5-Fluoro-N,N-diisopropyl-2-((4-(7-(((2S,5R)-5-(methylsulfonamido)tetrahydro-2H-pyran-2-yl)methyl)-2,7-diazaspiro[3.5]nonan-2-yl)pyrimidin-5-yl)oxy)benzamide] | +++ (≥66%) | +++ (≥66%) | +++ (≥66%) | +++ (≥66%) | ++ (233% and ≤66%) | > 7.00 |
| CC(C)N(C(=O)c1cc(F)ccc1Oc1cncnc1N1CC2(CCN(C[C@@H]3CC[C@@H](NS(=O)(=O)C4CC4)CO3)CC2)C1)C(C)C [Example 15, 2-((4-(7-(((2S,5R)-5-(Cyclopropanesulfonamido)tetrahydro-2H-pyran-2-yl)methyl)-2,7-diazaspiro[3.5]nonan-2-yl)pyrimidin-5-yl)oxy)-5-fluoro-N,N-diisopropylbenzamide] | – | +++ (≥66%) | +++ (≥66%) | ++ (233% and ≤66%) | + (<33%) | > 7.00 |
| CC(C)N(C(=O)c1cc(F)ccc1Oc1cncnc1N1CC2(CCN(C[C@@H]3CC[C@@H](NS(=O)(=O)C(C)C)CO3)CC2)C1)C(C)C [Example 14, 5-Fluoro-N,N-diisopropyl-2-((4-(7-(((2S,5R)-5-((1-methylethyl)sulfonamido)tetrahydro-2H-pyran-2-yl)methyl)-2,7-diazaspiro[3.5]nonan-2-yl)pyrimidin-5-yl)oxy)benzamide] | – | +++ (≥66%) | +++ (≥66%) | ++ (233% and ≤66%) | + (<33%) | > 7.00 |
| CCS(=O)(=O)N[C@@H]1CC[C@@H](CN2CCC3(CC2)CN(c2ncncc2Oc2ccc(F)cc2C(=O)N(C(C)C)C2CC2)C3)OC1 [Example 19, N-Cyclopropyl-2-((4-(7-(((2S,5R)-5-(ethylsulfonamido)tetrahydro-2H-pyran-2-yl)methyl)-2,7-diazaspiro[3.5]nonan-2-yl)pyrimidin-5-yl)oxy)-5-fluoro-N-isopropylbenzamide] | – | – | +++ (≥66%) | ++ (233% and ≤66%) | – | > 7.00 |
| CCS(=O)(=O)N[C@@H]1CC[C@@H](CN2CCC3(CC2)CN(c2ncncc2Oc2ccc(F)cc2C(=O)N(C(C)C)[C@H]2CCOC2)C3)OC1 [Example 33, 2-((4-(7-(((2S,5R)-5-(Ethylsulfonamido)tetrahydro-2H-pyran-2-yl)methyl)-2,7-diazaspiro[3.5]nonan-2-yl)pyrimidin-5-yl)oxy)-5-fluoro-N-isopropyl-N-((S)-tetrahydrofuran-3-yl)benzamide] | – | – | +++ (≥66%) | +++ (≥66%) | – | > 7.00 |
| CCN(C(=O)c1cc(F)ccc1Oc1cncnc1N1CC2(CCN(C[C@@H]3CC[C@@H](NS(C)(=O)=O)CO3)CC2)C1)C(C)C [Example 1, N-Ethyl-5-fluoro-N-isopropyl-2-((4-(7-(((2S,5R)-5-(methylsulfonamido)tetrahydro-2H-pyran-2-yl)methyl)-2,7-diazaspiro[3.5]nonan-2-yl)pyrimidin-5-yl)oxy)benzamide] | – | – | +++ (≥66%) | ++ (233% and ≤66%) | – | > 7.00 |
| CCN(C(=O)c1cc(F)ccc1Oc1cncnc1N1CC2(CCN(C[C@@H]3CC[C@@H](NS(=O)(=O)C4CCC4)CO3)CC2)C1)C(C)C [Example 6, 2-((4-(7-(((2S,5R)-5-(Cyclobutanesulfonamido)tetrahydro-2H-pyran-2-yl)methyl)-2,7-diazaspiro[3.5]nonan-2-yl)pyrimidin-5-yl)oxy)-N-ethyl-5-fluoro-N-isopropylbenzamide] | – | – | +++ (≥66%) | ++ (233% and ≤66%) | – | > 7.00 |
| CCS(=O)(=O)N[C@@H]1CC[C@@H](CN2CCC3(CC2)CN(c2ncncc2Oc2ccc(F)cc2C(=O)N(C(C)C)C2CC(F)(F)C2)C3)OC1 [Example 44, N-(3,3-Difluorocyclobutyl)-2-((4-(7-(((2S,5R)-5-(ethylsulfonamido)tetrahydro-2H-pyran-2-yl)methyl)-2,7-diazaspiro[3.5]nonan-2-yl)pyrimidin-5-yl)oxy)-5-fluoro-N-isopropylbenzamide] | – | – | +++ (≥66%) | ++ (233% and ≤66%) | – | > 7.00 |
| C[C@@H]1COC[C@H](C)N1C(=O)c1cc(F)ccc1Oc1cncnc1N1CC2(CCN(C[C@@H]3CC[C@@H](NS(=O)(=O)C4COC4)CO3)CC2)C1 [Example 27, N-((3R,6S)-6-((2-(5-(2-((3S,5R)-3,5-Dimethylmorpholine-4-carbonyl)-4-fluorophenoxy)pyrimidin-4-yl)-2,7-diazaspiro[3.5]nonan-7-yl)methyl)tetrahydro-2H-pyran-3-yl)oxetane-3-sulfonamide] | – | – | – | – | – | > 7.00 |
| CC(C)N(C(=O)c1cc(F)ccc1Oc1cncnc1N1CC2(CCN(C[C@@H]3CC[C@@H](NC(=O)OC(C)(C)C)CO3)CC2)C1)C1CC1 [Example 17, tert-Butyl ((3R,6S)-6-((2-(5-(2-(cyclopropyl(isopropyl)carbamoyl)-4-fluorophenoxy)pyrimidin-4-yl)-2,7-diazaspiro[3.5]nonan-7-yl)methyl)tetrahydro-2H-pyran-3-yl)carbamate] | – | – | – | – | – | > 7.00 |

Source: US20240400564A1 (Syndax Pharmaceuticals, Inc, priority 2021, published 2024)
